# Source: ChEMBL document CHEMBL1201862, “PubChem BioAssay data set” (2004)
#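 All cell lines were grown in 96-well plates and treated with compound for 48 hours. Here, GI50 denotes the concentration required for 50% inhibition of growth.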 Active and inactive are the calls of the source. Rule as the data show it: active = GI50 up to about 1.1 µM and inactive = higher.
# What was measured:
# Assay in all cases: NCI tumour cell line growth inhibition, 48 h
# OVCAR-5 = tested on: OVCAR-5
# SF-539 = tested on: SF-539
# SR = tested on: SR
# 786-0 = tested on: 786-0
# A549 = tested on: A549
# SN12C = tested on: SN12C
# EKVX = tested on: EKVX
# MDA-MB-435 = tested on: MDA-MB-435
# NCI/ADR-RES = tested on: NCI/ADR-RES
# OVCAR-3 = tested on: OVCAR-3
# CCRF-CEM = tested on: CCRF-CEM
# OVCAR-8 = tested on: OVCAR-8
# COLO 205 = tested on: COLO 205
# UO-31 = tested on: UO-31
# MDA-MB-231 = tested on: MDA-MB-231
# UACC-257 = tested on: UACC-257
# PC-3 = tested on: PC-3
# HCT-15 = tested on: HCT-15
# RXF 393 = tested on: RXF 393
# CAKI-1 = tested on: CAKI-1
# MOLT-4 = tested on: MOLT-4
# MDA-N = tested on: MDA-N
# ACHN = tested on: ACHN
# K562 = tested on: K562
# SW-620 = tested on: SW-620
# SK-OV-3 = tested on: SK-OV-3
# MCF7 = tested on: MCF7
# TK-10 = tested on: TK-10
# HCT-116 = tested on: HCT-116
# SK-MEL-5 = tested on: SK-MEL-5
# UACC-62 = tested on: UACC-62
# U-251 = tested on: U-251
# SNB-19 = tested on: SNB-19
# SF-295 = tested on: SF-295
# SF-268 = tested on: SF-268
# SK-MEL-2 = tested on: SK-MEL-2
# NCI-H226 = tested on: NCI-H226
# HCC 2998 = tested on: HCC 2998
# HT-29 = tested on: HT-29
# NCI-H522 = tested on: NCI-H522
# NCI-H460 = tested on: NCI-H460
# OVCAR-4 = tested on: OVCAR-4
# Hs-578T = tested on: Hs-578T
# LOX IMVI = tested on: LOX IMVI
# RPMI-8226 = tested on: RPMI-8226
# DU-145 = tested on: DU-145
# NCI-H23 = tested on: NCI-H23
# HOP-62 = tested on: HOP-62
# SNB-75 = tested on: SNB-75
# T47D = tested on: T47D
# IGROV-1 = tested on: IGROV-1
# SK-MEL-28 = tested on: SK-MEL-28
smiles,measurement,setting,value
COC(=O)C1Cc2c([nH]c3ccccc23)-c2[nH]c3ccccc3c2CC(NC(C)=O)C(=O)N2CCCC2C(=O)N1 (configuration not stated),GI50,OVCAR-5,> 100 µM (inactive)
same,GI50,SF-539,> 100 µM (inactive)
same,GI50,SR,> 100 µM (inactive)
same,GI50,786-0,> 100 µM (inactive)
same,GI50,A549,> 100 µM (inactive)
same,GI50,SN12C,> 100 µM (inactive)
same,GI50,EKVX,> 100 µM (inactive)
same,GI50,MDA-MB-435,> 100 µM (inactive)
same,GI50,NCI/ADR-RES,> 100 µM (inactive)
same,GI50,OVCAR-3,> 100 µM (inactive)
same,GI50,CCRF-CEM,93.5 µM (inactive)
same,GI50,OVCAR-8,> 100 µM (inactive)
same,GI50,COLO 205,53.1 µM (inactive)
same,GI50,UO-31,> 100 µM (inactive)
same,GI50,MDA-MB-231,> 100 µM (inactive)
same,GI50,UACC-257,> 100 µM (inactive)
same,GI50,PC-3,> 100 µM (inactive)
same,GI50,HCT-15,> 100 µM
same,GI50,RXF 393,> 100 µM (inactive)
same,GI50,CAKI-1,> 100 µM (inactive)
same,GI50,MOLT-4,66.7 µM (inactive)
same,GI50,MDA-N,> 100 µM (inactive)
same,GI50,ACHN,> 100 µM (inactive)
same,GI50,K562,> 100 µM (inactive)
same,GI50,SW-620,> 100 µM (inactive)
same,GI50,SK-OV-3,> 100 µM (inactive)
same,GI50,MCF7,> 100 µM (inactive)
same,GI50,TK-10,> 100 µM (inactive)
same,GI50,HCT-116,> 100 µM (inactive)
same,GI50,SK-MEL-5,> 100 µM (inactive)
same,GI50,UACC-62,> 100 µM (inactive)
same,GI50,U-251,> 100 µM (inactive)
same,GI50,SNB-19,> 100 µM (inactive)
same,GI50,SF-295,> 100 µM (inactive)
same,GI50,SF-268,> 100 µM (inactive)
same,GI50,SK-MEL-2,> 100 µM (inactive)
same,GI50,NCI-H226,0.176 µM (active)
same,GI50,HCC 2998,> 100 µM (inactive)
same,GI50,HT-29,> 100 µM (inactive)
same,GI50,NCI-H522,36.1 µM (inactive)
same,GI50,NCI-H460,> 100 µM (inactive)
same,GI50,OVCAR-4,> 100 µM (inactive)
same,GI50,Hs-578T,> 100 µM (inactive)
same,GI50,LOX IMVI,> 100 µM (inactive)
same,GI50,RPMI-8226,56.8 µM (inactive)
same,GI50,DU-145,> 100 µM (inactive)
same,GI50,NCI-H23,> 100 µM (inactive)
same,GI50,HOP-62,> 100 µM (inactive)
same,GI50,SNB-75,> 100 µM (inactive)
same,GI50,T47D,> 100 µM (inactive)
same,GI50,IGROV-1,24.8 µM (inactive)
same,GI50,SK-MEL-28,> 100 µM (inactive)
